Data published in patent publication US9387221B2, “SDF-1 binding nucleic acids and the use thereof in cancer treatment” (NOXXON Pharma AG, priority 2010, dated 2016).

How the values were obtained:
[1] = target: CXCR4 (Mus musculus, UniProt P70658); conditions: GBM mouse xenograft, irradiation; cited from earlier work
[2] = target: CXCR4 (Homo sapiens, UniProt P61073); conditions: MM cells in vivo, CXCR4 blockade; cited from earlier work
[3] = system: RPMI-8226 MM cells; assay: Chemosensitization coculture of RPMI-8226 MM cells with stromal MS-5 cells; format: cell-based; conditions: 100 nM NOX-A12, 1 μM F-ara-A, 40 hours
Method: In order to mimic the in vivo interaction of the BM microenvironment with leukemia cells, an in vitro coculture system with murine BM stromal MS-5 cells and the multiple myeloma (abbr. MM) cell line RPMI 8226 was established. Aim of the experiment was to show whether SDF-1 binding […] NOX-A12 sensitizes MM cells in coculture with stromal cells to effects of chemotherapeutic agents. Stromal MS-5 cells secreting SDF 1 were incubated with SDF-1 binding […] NOX-A12 or the non-functional revNOX-A12. The MM cell line RPMI-8226 was added to the confluent stromal cell layer. The cells were then incubated with the chemotherapeutic agent F ara A (Fludarabine) for 40 hours. Cell Viability viability was measured. The murine stromal cell line MS-5 (ACC 441) was purchased from the DSMZ, the Multiple Myeloma cell line RPMI8226 (CCL-155) was purchased from the ATCC. The Multiple Myeloma cell line RPMI8226 was maintained in RPMI medium 1640 GlutaMAX (Invitrogen) supplemented with 10% FBS (Biochrom) and penicillin-streptomycin, the MS-5 cells were cultured in MEM alpha GlutaMAX (Invitrogen) with 10% FBS and penicillin-streptomycin. […] Cell viability and cell number were determined by Flow Cytometry using the Guava EasyCyte 6HT/2L (Millipore).

[4] = system: stromal MS-5 cells; assay: Viability of stromal MS-5 cells in the coculture; format: cell-based, murine; conditions: data not shown
Method: The murine stromal cell line MS-5 (ACC 441) was purchased from the DSMZ, the Multiple Myeloma cell line RPMI8226 (CCL-155) was purchased from the ATCC. The Multiple Myeloma cell line RPMI8226 was maintained in RPMI medium 1640 GlutaMAX (Invitrogen) supplemented with 10% FBS (Biochrom) and penicillin-streptomycin, the MS-5 cells were cultured in MEM alpha GlutaMAX (Invitrogen) with 10% FBS and penicillin-streptomycin. For chemosensitization coculture experiments stromal MS-5 cells were seeded the day before onto 24-well plates (the inner eight wells) at a concentration of 8×10^4/mL/well in MEM alpha GlutaMAX medium (+10% FBS) and incubated at 37° C. in 5% CO2. The confluent stromal cell layer was washed and 0.5 mL RPMI medium 1640 (+1% FBS) was added to the wells. SDF-1 binding […] NOX-A12 or revNOX-A12 was subsequently added to the wells to a final concentration of 100 nM and incubated for four hours. 3.5×10^5 RPMI8226 cells in RPMI medium 1640 (+1% FBS) were added to the stromal cell layer. Four hours later, 1 μ[…] (Sigma Aldrich) was added to the cells when indicated. After 40 hours of incubation the cells were collected in 15 mL tubes, first the supernatant was harvested and then the attached cells were trypsinized including MS-5 cells. […] Cell viability and cell number were determined by Flow Cytometry using the Guava EasyCyte 6HT/2L (Millipore).

Chain of CXCR4 (Mus musculus, UniProt P70658) (P70658 whole entry): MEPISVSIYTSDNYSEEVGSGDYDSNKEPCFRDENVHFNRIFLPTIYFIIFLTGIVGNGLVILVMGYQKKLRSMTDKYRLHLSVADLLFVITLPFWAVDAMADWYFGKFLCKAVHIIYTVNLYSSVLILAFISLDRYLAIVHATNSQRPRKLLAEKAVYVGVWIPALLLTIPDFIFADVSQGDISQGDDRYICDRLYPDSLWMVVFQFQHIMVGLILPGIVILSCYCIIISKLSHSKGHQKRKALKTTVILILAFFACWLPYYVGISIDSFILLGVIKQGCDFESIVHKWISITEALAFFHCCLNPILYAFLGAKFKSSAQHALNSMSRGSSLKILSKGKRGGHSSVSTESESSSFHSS
Chain of CXCR4 (Homo sapiens, UniProt P61073) (P61073 whole entry, species assumed): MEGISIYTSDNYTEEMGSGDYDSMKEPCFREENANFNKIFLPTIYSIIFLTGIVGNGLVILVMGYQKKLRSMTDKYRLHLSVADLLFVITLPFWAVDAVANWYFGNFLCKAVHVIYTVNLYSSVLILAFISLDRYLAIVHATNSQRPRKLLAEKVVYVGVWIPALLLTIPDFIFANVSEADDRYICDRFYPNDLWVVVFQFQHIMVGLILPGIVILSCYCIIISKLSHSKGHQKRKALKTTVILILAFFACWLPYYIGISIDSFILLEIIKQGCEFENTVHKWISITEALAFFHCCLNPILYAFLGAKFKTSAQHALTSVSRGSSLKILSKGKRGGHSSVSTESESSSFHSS

SMILES | influx of BMDCs in the irradiated tumor [1] | tumor reduction induced by bortezomib [2] | cell viability of RPMI-8226 cells cocultured with stromal MS-5 cells [3] | viability of stromal MS-5 cells [4]
c1cc(CN2CCCNCCNCCCNCC2)ccc1CN1CCCNCCNCCCNCC1 [AMD3100] | prevented the influx of BMDCs in the irradiated tumor | enhanced tumor reduction induced by bortezomib |  | 
Nc1nc(F)nc2c1ncn2[C@@H]1O[C@H](CO)[C@@H](O)[C@@H]1O [F-ara-A, Fludarabine, reference compound] |  |  | no significant effect | neither affected
